Data from patent US5646130A, “Low molecular weight sulfated polysaccharides and uses thereof” (priority 1995, dated 1997).

Key:
[1] = test system: fibrinolysis (euglobulin lysis); assay: Euglobulin lysis time in rabbits; type: in vivo, rabbit; conditions: iv 333 U/Kg
Source text: ELT:englobulin (euglobulin) lysis time; a measurement of in vivo plasmin

thrombus formation = assay: Comparison of (M9 G)2 and heparin, thrombosis assay, Experiment 2; type: in vivo, rabbit; conditions: 83 u/kg
Protocol: Rabbits were anesthetized and surgically instrumented using an established method in which the right carotid artery was connected via a polyethylene tube to the left external […]. A 15 cm [#4] surgical wire was left in the polyethylene tubing for thrombus formation. The animals were then treated with saline or drug intravenously for 10 minutes and the arterial-venous shunt was connected to allow blood flow for 15 minutes. The wire was then retrieved and weighed to determine the thrombus weight.

[2] = test system: rabbit blood clot formation; assay: Ex vivo anti-thrombotic activity in treated rabbits (clot wet weight); conditions: 83 u/kg
Protocol: Blood [1 ml] was removed from the carotid artery of treated animals and quickly injected into clot formation tubes. […] The wet weight of the clot was determined. The clot was dried at 60° C. overnight, and dry weight was determined.

[3] = test system: fibrin degradation protein (FDP); assay: Fibrinolysis activity in rabbits (FDP, fibrinogen); type: in vivo, rabbit; conditions: iv 333 U/Kg
[4] = test system: preformed rabbit blood clot; assay: Ex vivo thrombolysis of preformed rabbit blood clot; conditions: 335 U/ml
Protocol: A rabbit arterial blood clot [1 ml] was preformed at 37° C., for 60 min. The clot was incubated in vitro with the drug (0.1 ml, 6 groups) in the clot forming tube at 37° C. for 60 min. At the end of the incubation, the clot was removed and its wet weight determined. It was then dried overnight and its dry weight was determined.

hyperlipoproteinemia = assay: Anti-hyperlipoproteinic activity in rats; type: in vivo, rat; conditions: 300 mg/Kg PO
Source text: The pharmacological activity increased with oral dose levels.

white blood cells = assay: Cyclophosphamide immunosuppression in albino mice; type: in vivo; conditions: cyclophosphamide alone
Source text: These compounds provided herein can also be used for enhancing cellular and humoral immunological activities. In particular, these compositions and compounds prevent or reduce the immunosuppressive side-effects associated with the administration of alkylating agents, such as cyclophosphamide, for treatment of certain cancers.

heparin
ELT time, 15 min post [1]: 124 min | ELT time, 60 min post [1]: 197 min | Wet weight inhibition, 15 min (thrombus formation): 97 | Wet weight inhibition, 60 min (thrombus formation): 20 | Wet weight inhibition, 120 min (thrombus formation): 0 | Clot wet weight, 15 min after [2]: 2.0 ± 4.5 mg | Clot wet weight, 60 min after [2]: 51 ± 23 mg | FDP, 15 min post [3]: 18 ± 9 mg/L | FDP, 60 min post [3]: 6 ± 6. mg/L | % Dissolution [4]: 4.7 ± 8.5% | Clot dry weight [4]: 14.1 ± 3.2 | Clot wet weight [4]: 56 ± 9

CCOC(=O)C(C)(C)Oc1ccc(Cl)cc1 [clofibrate]
MDA (hyperlipoproteinemia): 1.2 mmol/L | PTC (percent inhibition of total cholesterol) (hyperlipoproteinemia): 53% | TC (hyperlipoproteinemia): 4.0 mmol/L | TG (hyperlipoproteinemia): 0.4 mmol/L

O=P1(N(CCCl)CCCl)NCCCO1 (centres unmarked) [cyclophosphamide]
White blood cell counts (white blood cells): close to zero
